*1 amine or outer side, *2 acyl side, *3 side chain or, on linkers, in order; H or OH if unused. Where a SMILES comes first, the peptide text is derived from it. Bridges are numbered along the chain shown (N, C = ends). [ ]: non-standard residue; d: D form. The star is where a group is joined. pTerphenylCO(4''-OnC5H11) = CCCCCOc1ccc(-c2ccc(-c3ccc(C(=O)*)cc3)cc2)cc1; Orn(4R-OH,5R-OH) = O=C([C@H](C[C@@H](O)[C@@H](O)N[*:3])N[*:1])[*:2]; hTyr(3S-OH,4S-OH) = N[C@H](C(=O)O)[C@H](O)[C@@H](O)c1ccc(O)cc1; Pro(3S-OH,4S-Me) = C[C@H]1CN[C@H](C(=O)O)[C@H]1O; Hyp = O=C(O)[C@@H]1C[C@@H](O)CN1
Legend:
Hepatotoxicity [1] = system: Hepatotoxicity;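 as to HepSE bilirubinemia: bilirubinemia hepatic side effect score drawn from the DILIps training data, a prediction system for drug-induced liver injury; call rule not given here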;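 as to HepSE cholecystitis: Cholecystitis-related hepatic side effect score drawn from the DILIps (drug-induced liver injury prediction) training data set; call rule not given here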;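 as to HepSE cholelithiasis: hepatic side effect score for cholelithiasis, drawn from the DILIps training data for predicting drug-induced liver injury; call rule not given here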;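 as to HepSE cirrhosis: cirrhosis hepatic side effect score taken from the DILIps (drug-induced liver injury prediction) training set; call rule not given here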;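 as to HepSE elevated liver function tests: hepatic side effect score for raised liver function tests, as recorded in the DILIps training set used for predicting drug-induced liver injury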; as to HepSE hepatic failure: call rule not given here;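 as to HepSE hepatomegaly: hepatic side effect score for hepatomegaly, taken from the training set of the DILIps drug-induced liver injury prediction system; call rule not given here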
Hepatotoxicity [2] = system: Hepatotoxicity; remark: listed apart in the source;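 as to HepSE bilirubinemia: bilirubinemia hepatic side effect score drawn from the DILIps training data, a prediction system for drug-induced liver injury; call rule not given here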;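 as to HepSE cholecystitis: Cholecystitis-related hepatic side effect score drawn from the DILIps (drug-induced liver injury prediction) training data set; call rule not given here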;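 as to HepSE cholelithiasis: hepatic side effect score for cholelithiasis, drawn from the DILIps training data for predicting drug-induced liver injury; call rule not given here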;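 as to HepSE cirrhosis: cirrhosis hepatic side effect score taken from the DILIps (drug-induced liver injury prediction) training set; call rule not given here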;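 as to HepSE elevated liver function tests: hepatic side effect score for raised liver function tests, as recorded in the DILIps training set used for predicting drug-induced liver injury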; as to HepSE hepatic failure: call rule not given here
Hepatotoxicity [3] = system: Hepatotoxicity; remark: listed apart in the source;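 as to HepSE bilirubinemia: bilirubinemia hepatic side effect score drawn from the DILIps training data, a prediction system for drug-induced liver injury; call rule not given here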;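 as to HepSE cholecystitis: Cholecystitis-related hepatic side effect score drawn from the DILIps (drug-induced liver injury prediction) training data set; call rule not given here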;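 as to HepSE cholelithiasis: hepatic side effect score for cholelithiasis, drawn from the DILIps training data for predicting drug-induced liver injury; call rule not given here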;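 as to HepSE cirrhosis: cirrhosis hepatic side effect score taken from the DILIps (drug-induced liver injury prediction) training set; call rule not given here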;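 as to HepSE elevated liver function tests: hepatic side effect score for raised liver function tests, as recorded in the DILIps training set used for predicting drug-induced liver injury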; as to HepSE hepatic failure: call rule not given here
Hepatotoxicity [4] = system: Hepatotoxicity; remark: listed apart in the source;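 as to HepSE bilirubinemia: bilirubinemia hepatic side effect score drawn from the DILIps training data, a prediction system for drug-induced liver injury; call rule not given here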;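 as to HepSE cholecystitis: Cholecystitis-related hepatic side effect score drawn from the DILIps (drug-induced liver injury prediction) training data set; call rule not given here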;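 as to HepSE cholelithiasis: hepatic side effect score for cholelithiasis, drawn from the DILIps training data for predicting drug-induced liver injury; call rule not given here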;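 as to HepSE cirrhosis: cirrhosis hepatic side effect score taken from the DILIps (drug-induced liver injury prediction) training set; call rule not given here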;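 as to HepSE elevated liver function tests: hepatic side effect score for raised liver function tests, as recorded in the DILIps training set used for predicting drug-induced liver injury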; as to HepSE hepatic failure: call rule not given here
Hepatotoxicity [5] = system: Hepatotoxicity; remark: listed apart in the source; as to HepSE hepatic failure: call rule not given here
Hepatotoxicity [6] = system: Hepatotoxicity; remark: listed apart in the source; as to HepSE hepatic failure: call rule not given here
Hepatotoxicity [7] = system: Hepatotoxicity; remark: listed apart in the source
Hepatotoxicity [8] = system: Hepatotoxicity; remark: listed apart in the source
Hepatotoxicity [9] = system: Hepatotoxicity; remark: listed apart in the source
Hepatotoxicity [10] = system: Hepatotoxicity; remark: listed apart in the source
Hepatotoxicity [11] = system: Hepatotoxicity; remark: listed apart in the source
Hepatotoxicity [12] = system: Hepatotoxicity; remark: listed apart in the source
Hepatotoxicity [13] = system: Hepatotoxicity; remark: listed apart in the source
Hepatotoxicity [14] = system: Hepatotoxicity; remark: listed apart in the source

SMILES | HepSE_bilirubinemia (Hepatotoxicity [1]) | HepSE_cholecystitis (Hepatotoxicity [2]) | HepSE_cholelithiasis (Hepatotoxicity [3]) | HepSE_cirrhosis (Hepatotoxicity [4]) | HepSE_elevated liver function tests (Hepatotoxicity [5]) | HepSE_hepatic failure (Hepatotoxicity [6]) | HepSE_hepatic necrosis (Hepatotoxicity [7]) | HepSE_hepatitis (Hepatotoxicity [8]) | HepSE_hepatomegaly (Hepatotoxicity [9]) | HepSE_jaundice (Hepatotoxicity [10]) | HepSE_liver disease (Hepatotoxicity [11]) | HepSE_liver fatty (Hepatotoxicity [12]) | HepSE_liver function tests abnormal (Hepatotoxicity [13]) | HepSE_Combined Scores (Hepatotoxicity [14])
CC(N)Cc1ccccc1 (stereo not drawn) [AMPHETAMINE] | 0 | 0 | 0 | 0 | 0 | 0 | 0 | 0 | 0 | 0 | 0 | 0 | 0 | 0
C[C@@H]1[C@H](O)[C@@H](C)/C=C/C=C/C=C/C=C/C=C/C=C/C=C/[C@H](O[C@@H]2O[C@H](C)[C@@H](O)[C@H](N)[C@@H]2O)C[C@@H]2O[C@](O)(C[C@@H](O)C[C@@H](O)[C@H](O)CC[C@@H](O)C[C@@H](O)CC(=O)O[C@H]1C)C[C@H](O)[C@H]2C(=O)O [AMPHOTERICIN B] | 1 | 0 | 0 | 0 | 0 | 1 | 0 | 1 | 1 | 1 | 1 | 0 | 1 | 7
CC1(C)S[C@@H]2[C@H](NC(=O)[C@H](N)c3ccccc3)C(=O)N2[C@H]1C(=O)O [AMPICILLIN] | 0 | 0 | 0 | 0 | 0 | 0 | 0 | 0 | 0 | 0 | 0 | 0 | 0 | 0
COc1cc(NS(C)(=O)=O)ccc1Nc1c2ccccc2nc2ccccc12 [AMSACRINE] | 0 | 0 | 0 | 0 | 0 | 1 | 0 | 1 | 0 | 1 | 0 | 0 | 0 | 3
O=C1CN2Cc3c(ccc(Cl)c3Cl)N=C2N1 [ANAGRELIDE] | 0 | 0 | 0 | 0 | 1 | 0 | 0 | 0 | 0 | 0 | 0 | 0 | 0 | 1
CC(C)(C#N)c1cc(Cn2cncn2)cc(C(C)(C)C#N)c1 [ANASTROZOLE] | 0 | 0 | 0 | 0 | 1 | 0 | 0 | 1 | 0 | 0 | 0 | 0 | 0 | 2
CCCCCOc1ccc(-c2ccc(-c3ccc(C(=O)N[C@H]4C[C@@H](O)[C@@H](O)NC(=O)[C@@H]5[C@@H](O)[C@@H](C)CN5C(=O)[C@H]([C@@H](C)O)NC(=O)[C@H]([C@H](O)[C@@H](O)c5ccc(O)cc5)NC(=O)[C@@H]5C[C@@H](O)CN5C(=O)[C@H]([C@@H](C)O)NC4=O)cc3)cc2)cc1 [ANIDULAFUNGIN] ({pTerphenylCO(4''-OnC5H11)}-[Orn(4R-OH,5R-OH)]T[Hyp][hTyr(3S-OH,4S-OH)]T[Pro(3S-OH,4S-Me)]; lactam 1-C) | 0 | 0 | 0 | 0 | 0 | 0 | 1 | 0 | 0 | 0 | 0 | 0 | 1 | 2
CN1CCc2cccc3c2[C@H]1Cc1ccc(O)c(O)c1-3 [APOMORPHINE] | 0 | 0 | 0 | 0 | 0 | 0 | 0 | 0 | 0 | 0 | 0 | 0 | 0 | 0
Nc1cc(Cl)c(N=C2NCCN2)c(Cl)c1 [APRACLONIDINE] | 0 | 0 | 0 | 0 | 0 | 0 | 0 | 0 | 0 | 0 | 0 | 0 | 0 | 0
C[C@@H](O[C@H]1OCCN(Cc2n[nH]c(=O)[nH]2)[C@H]1c1ccc(F)cc1)c1cc(C(F)(F)F)cc(C(F)(F)F)c1 [APREPITANT] | 0 | 0 | 0 | 0 | 0 | 0 | 0 | 0 | 0 | 0 | 0 | 0 | 0 | 0
CC1CNc2c(cccc2S(=O)(=O)N[C@@H](CCCNC(=N)N)C(=O)N2CC[C@@H](C)C[C@@H]2C(=O)O)C1 (stereo partly drawn) [ARGATROBAN] | 0 | 0 | 0 | 0 | 0 | 0 | 0 | 0 | 0 | 0 | 0 | 0 | 0 | 0
N=C(N)NCCC[C@H](N)C(=O)O [ARGININE] | 0 | 0 | 0 | 0 | 0 | 0 | 0 | 0 | 0 | 0 | 0 | 0 | 0 | 0

Reference: ChEMBL document CHEMBL1909294, “Translating clinical findings into knowledge in drug safety evaluation--drug induced liver injury prediction system (DILIps)” (PLoS Comput Biol, 2011)
